Columns and labels:
Homo sapiens = species on record: Homo sapiens; assay: Selectivity ratio, the ratio of ki for human D2 receptor to Ki for human D1 receptor
[1] = Ionization constant for the compound (pKa); type: physicochemical

Ratio (Homo sapiens)	pKa [1]	Compound
12		Oc1cc2c(cc1Cl)CCN=C(NC1CCCCC1)N2
12		Oc1cc2c(cc1Cl)CCN=C(NC1CCCC1)N2
42		Oc1cc2c(cc1Cl)CCN=C(c1ccccc1)N2
1		NC1=NCCc2cc(Cl)c(O)cc2N1
17		CC(C)CC1=NCCc2cc(Cl)c(O)cc2N1
13		CNC1=NCCc2cc(Cl)c(O)cc2N1
6		Oc1cc2c(cc1Cl)CCN=C(NC1CC1)N2
1		Oc1cc2c(cc1Cl)CCN=C(C1CC1)N2
1		Oc1cc2c(cc1Cl)CCN=C(NCCc1ccccc1)N2
7		Oc1cc2c(cc1Cl)CCN=C(C1CCCCC1)N2
5		CSC1=NCCc2cc(Cl)c(O)cc2N1

The next lines start with the compound.

Compound	Ratio (Homo sapiens)	pKa [1]
COc1ccc(C2CC2C2=NCCc3cc(Cl)c(O)cc3N2)cc1 (centres undefined)	3	
COc1ccc2cc(C3=NCCc4cc(Cl)c(O)cc4N3)ccc2c1	4	
CC1=NCCc2cc(Cl)c(O)cc2N1c1ccccc1	36	
CC1=NCCc2cc(Cl)c(O)cc2N1Cc1ccccc1	3	
CCCC/N=C/N(C)c1ccccc1		8.9
CN(C)c1ccc(/C=C/C2=NCCc3cc(Cl)c(O)cc3N2c2ccccc2)cc1	23	
COc1ccc(/C=C/C2=NCCc3cc(Cl)c(O)cc3N2)cc1	3	
CC1=NCCc2cc(Cl)c(O)cc2N1c1ccccc1C	31	
N=C(N)Nc1ccccc1 [PHENYLGUANIDINE]		10.8
Oc1cc2c(cc1Cl)CCN=C(SCc1ccccc1)N2	2	
CC1=NCCc2cc(Cl)c(O)cc2N1c1ccc(C)cc1	55	
CC1=NCCc2cc(Cl)c(O)cc2N1c1ccsc1	32	
CN(C)c1ccc(/C=C/C2=NCCc3cc(Cl)c(O)cc3N2C2CCCCC2)cc1	8	

Reference: ChEMBL document CHEMBL1155336, “Design and discovery of 1,3-benzodiazepines as novel dopamine antagonists” (Bioorg Med Chem Lett, 2009)
